Where no end group is shown, it is not given here. [ ]: non-standard residue; d: D form. Ahx = NCCCCCC(=O)O
System: live APC (spleenocytes) from NOD (I-A^g7), BALB/c, A.SW, A.BY mice
Experiment: Flow cytometry of biotinylated peptide binding to live APC (spleenocytes) of inbred mouse strains
Details: for percentage of high-density binding cells: biotinylated peptide 50 μM, overnight; for preferential binding to NOD APC compared with other strains (BALB/c, A.SW, A.BY): biotinylated peptide, live spleenocytes, flow cytometry
Experimental: Specifically, it was verified that the peptide binds to MHC molecules on live APC. Briefly, spleen cell density-gradient fractions (from mice), or PBL, or APC lines (from humans) were incubated in round bottom 96-well plates with increasing concentrations of individual biotinylated peptides at 37° C., 5% CO2 for 16 hours. Following binding of the BPI to the APC, Avidin-FITC was incubated with the cells on ice for 30 minutes, followed by biotinylated anti-Avidin for 1 hour, then again with Avidin-FITC. For BPI titrations, increasing concentrations (0.1-100 μM) of the biotinylated derivatives in sterile 0.5% BSA-PBS were incubated with the APC for 16 hours as above. […] Three-color analyses used Cy-Chrome or PE-conjugated antibodies to known surface markers of APC that were commercially available. Avidin-FITC and biotinylated anti-Avidin detection of the bound peptide was as previously described in Murray et al., 24 Eur. J. Immunol. 2337-2344 (1994); Murray; 19 Immunology Today 157-163; and Schountz et al., 157 The Journal of Immunology 3893-3901 (1996). Slight modifications of this method were used to test peptide inhibition (i.e., peptide affinity) and co-capping to the MHC and ICAM molecules directly on the live APC surface. […] Unlabeled peptide was used in a competition assay to derive the relative affinity of the BPI for the APC and the ability of the BPI to crosslink the MHC and ICAM molecules on the APC was examined by cocapping ICAM with an anti-MHC mAb. Here, cells were incubated with the BPI. Next, an anti-MHC mAb was added. After 30 minutes at 37° C., the cells were transferred to ice and stained with PE-labeled anti-ICAM (FIG. 7).
To obtain biotinylated BPI, the synthesized EGAD BPI was biotinylated with NHS-Biotin as described in Murray et al., 24 Eur. J. Immunol. 2337-2344 (1994). Spleen cell density-gradient fractions from normal (unimmunized) NOD, BALB/c and other MHC congenic strains were incubated in round bottom 96-well plates with increasing concentrations of individual biotinylated peptides at 37° C., 5% CO2 for 16 hours. Following binding of the BPI to the APC, Avidin-FITC was incubated with the cells on ice for 30 minutes, followed bybiotinylated anti-Avidin for 1 hour, then again with Avidin-FITC. For BPI titrations, increasing concentrations (0.1-100 μM) of the biotinylated derivatives in sterile 0.5% BSA-PBS were incubated with the APC for 16 hours as above. Three-color analyses used Cy-Chrome or PE-conjugated anti-B220 (mAb RA3-6B2 (CD45R B-cell marker), anti-MHC class II (KH74 or 10-3.62 mAb), or anti-ICAM-1 (3E2 mAb); (all purchased from PharMingen, San Diego, Calif.). Bound peptide was detected with avidin-FITC/biotinylated anti-avidin/avidin-FITC on live cells gated by forward/side scatter analysis. Controls contained all detecting reagents in absence of the biotinylated peptide; 20,000 events were analyzed for each histogram with a FACScan (Becton-Dickinson) flow cytometer.
To verify antigenic peptide binding to live APC, initial EGAD-BPI were screened for selective binding to NOD (I-A^g7) APC and assayed for simultaneous binding using monoclonal antibodies against either MHC-II or ICAM-1 by flow cytometry methods using live APC (Murray et al., 24 Eur. J. Immunol. 2337-2344 (1994); Murray; 19 Immunology Today 157-163; and Schountz et al., 157 The Journal of Immunology 3893-3901 (1996)). In this assay, increasing concentrations of the biotinylated-BPI, -CD11a(237-247) or -GAD65(208-217) peptide were incubated overnight with spleenocytes from each inbred strain. Bound peptide was detected with amplification of avidin-FITC fluorescence by the use of a biotinylated anti-avidin reagent, followed by a second round of avidin-FITC binding. Biotinylated peptide was incubated with 10^6 viable cells at a peptide concentrations of 50 μM. Bound peptide was detected with avidin-FITC/biotinylated anti-avidin-FITC. […]

GAD65(208-217)-[Ac-G-Ac-G-Ac]-CD11a (237-247) (EIAPVFVLLE[Ahx]G[Ahx]G[Ahx]ITDGEATDSG) [EGAD-BPI]
percentage of high-density binding cells (A.BY spleenocytes): 6%
percentage of high-density binding cells (NOD spleenocytes): 30%
preferential binding to NOD APC compared with other strains (BALB/c, A.SW, A.BY): higher density
preferential binding to NOD APC compared with other strains (BALB/c, A.SW, A.BY) (listed as GAD 65 BPI): binds preferentially to NOD APC

Reference: patent publication US7786257B2, “Signal-1/signal-2 bifunctional peptide inhibitors” (priority 2000, dated 2010)
